# Data taken from US9410128B2, “Method and compounds for generation of iPSCs” (Sanford-Burnham Medical Research Institute, priority 2011, dated 2016).
# Columns and labels:
# Assay type in all cases: cell-based, mouse
# Oct4-EGFP MEFs [1] = assay: Alkaline phosphatase (AP)+ colony formation during reprogramming; details: molecules applied during reprogramming; data not shown
# Description: iPS cells were seeded and cultured on 0.1% gelatin-coated 6-well plates. Four days later, cells were fixed with 4% paraformadehyde (Electron Microscopy Sciences; Cat#15710-S). For immunofluorescence, fixed cells were permeabilized with 0.1% Triton X-100 in PBS and blocked with 5% BSA in PBS. SSEA-1 (R&D; Cat#MAB2155), Sox2 (R&D; Cat#MAB2018), and Nanog (R&D; Cat#AF2729) antibodies were used to detect ES markers. Nuclei were visualized by Hoechst 33342 (Invitrogen) staining. For AP staining, fixed cells were treated with alkaline phosphatase substrate following the manufacturer's instruction (Vector Laboratories; Cat#SK-5100).
# All 17 molecules were tested by examining alkaline phosphatase (AP)+ colony formation during reprogramming while these molecules were applied. […] To that end, 6 molecules were picked including nabumetone, 4-hydroxytamoxifen (OHTM), corynanthine, moclobemide, NiSO4, and lectin—for further analysis (FIG. 2A). To evaluate their effect on induction of mature GFP+ iPS cells, OSKM-transduced Oct4-EGFP MEFs were treated four days after transduction with each of these factors separately.
# Oct4-EGFP MEFs [2] = assay: OKM (without Sox2) reprogramming of Oct4-EGFP MEFs, GFP+ colony count
# Description: Oct4-EGFP MEFs were derived from the mouse strain B6; 129S4-Pou5f1^tm2(EGFP)Jae/J (The Jackson Laboratory, Bar Harbor, Me., USA, on the world wide web at jax.org/; stock #008214) following the protocol on the WiCell Research Institute, Madison, Wis., USA, on the world wide web at wicell.org/website. In brief, embryonic day 13.5 (E13.5) embryos were collected from timemated pregnant female mice and then tested for microbial contamination. […]
# Reprogramming was conducted as described in Takahashi et al. (Cell 126: 663-676 (2006)). […] Reprogrammed (EGFP+) cells were identified and scored by fluorescence microscopy two to three weeks post transduction, unless otherwise stated. […]
# Oct4-EGFP MEFs were transduced with OKM and treated with pool of 6 molecules, including NiSO4, nabumetone, OHTM, moclobemide, lectin, and corynanthine, at day 4 for at least 10 days. GFP+ colonies were identified and counted as described in FIG. 1 at day 14. […]
# Oct4-EGFP MEFs were transduced with OKM and four days later treated with 1.25 uM OHTM at least 10 days. GFP+ colonies were counted as described in FIG. 1 at day 15˜21. […]
# Oct4-EGFP MEFs were transduced with OKM and four days later treated with 2.18 uM nabumetone (Nabu) for at least 10 days. GFP+ colonies were counted as described in FIG. 1 at day 17˜21. […]
# Oct4-EGFP MEFs [3] = assay: OSK (without c-Myc) reprogramming of Oct4-EGFP MEFs, GFP+ colony count
# Excerpt: (§1) Oct4-EGFP MEFs were derived from the mouse strain B6; 129S4-Pou5f1^tm2(EGFP)Jae/J (The Jackson Laboratory, Bar Harbor, Me., USA, on the world wide web at jax.org/; stock #008214) following the protocol on the WiCell Research Institute, Madison, Wis., USA, on the world wide web at wicell.org/website. In brief, embryonic day 13.5 (E13.5) embryos were collected from timemated pregnant female mice and then tested for microbial contamination. Oct4-EGFP MEFs were maintained in MEF complete medium (Dulbecco's modified Eagle's medium [For DMEM or culture medium & materials: Gibco Cell Culture, Carlsbad, Calif., USA, on the world wide web at invitrogen.com/gibco] with 10% fetal bovine serum (FBS), nonessential amino acids, L-glutamine, and no sodium pyruvate). Cells passaged fewer than five times were used for induced reprogramming.
# Reprogramming was conducted as described in Takahashi et al. (Cell 126: 663-676 (2006)). In brief, 4×10^4 Oct4-EGFP MEF were transduced with pMX retroviruses for ectopic expression of Oct4, Sox2, Klf4, and c-Myc (Addgene). […] Reprogrammed (EGFP+) cells were identified and scored by fluorescence microscopy two to three weeks post transduction, unless otherwise stated. […]
# Oct4-EGFP MEFs [4] = assay: OSKM-induced reprogramming of Oct4-EGFP MEFs to iPS cells, GFP+ colony count
# Excerpt: as §1
# Reprogramming was conducted as described in Takahashi et al. (Cell 126: 663-676 (2006)). In brief, 4×10^4 Oct4-EGFP MEF were transduced with pMX retroviruses for ectopic expression of Oct4, Sox2, Klf4, and c-Myc (Addgene). Three days later, cells were fed ES medium (DMEM with 15% ES-screened FBS, nonessential amino acids, L-glutamine, monothioglycerol, and 1000 U/ml leukemia inhibitory factor (LIF)) and the media was changed every other day. Reprogrammed (EGFP+) cells were identified and scored by fluorescence microscopy two to three weeks post transduction, unless otherwise stated. To derive iPSCs, EGFP+ colonies were manually picked under a stereomicroscope (Leica Microsystems). In the case of small molecule treatment, indicated small molecules were applied to reprogramming cells on day four post-transduction and fresh medium was added every other day for at least two weeks or until EGFP+ colonies appeared.
# For reprogramming, retrovirus expressing reprogramming factors (Oct4, Sox2, Klf4, and c-Myc) were added and the medium was then changed to complete medium next day. For overexpression of COX2 transgene, retroviruses expressing COX2 were added 1 day after OSKM transduction. siRNAs were introduced at day 5 post-transduction.
# Sox2 = assay: Endogenous Sox2 mRNA expression by real time qRT-PCR in OKM-transduced Oct4-EGFP MEFs; details: OKM-transduced cells, compared with OKM+DMSO (FIG. 3E)
# Excerpt: To understand the molecular mechanism underlying OHTM's effect on reprogramming, the question of whether OHTM induces endogenous Sox2 expression was posed. To do so, OHTM or control DMSO was applied to Oct4-EGFP MEF four days after transduction with OKM. Cells were harvested at indicated time points for total RNA isolation and real time qRT-PCR analysis (FIG. 3E). […] However, the direct targets of OHTM to affect Sox2 expression were not clear.
# Oct4-EGFP MEFs were transduced with OKM and treated with OHTM four days later. Cells were harvested at indicated days (D) for real time RT-PCR analysis. β actin expression serves as an internal control. Error bars represent standard deviation of 2˜3 independent experiments. * p value <0.05.
compound,measurement,setting,value
O=C(NCCN1CCOCC1)c1ccc(Cl)cc1 [Moclobemide],effect on AP+ colony formation,Oct4-EGFP MEFs [1],not showing adverse effect
COC(=O)[C@H]1[C@H]2C[C@H]3c4[nH]c5ccccc5c4CCN3C[C@@H]2CC[C@@H]1O.Cl [Corynanthine hydrochloride],effect on AP+ colony formation,Oct4-EGFP MEFs [1],not showing adverse effect
COc1ccc2cc(CCC(C)=O)ccc2c1 [Nabumetone],effect on AP+ colony formation,Oct4-EGFP MEFs [1],not showing adverse effect
same,effect on OKM-induced reprogramming,"Oct4-EGFP MEFs [2]; 2.18 uM, day 17~21 (FIG. 3D)",significantly improved
same,enhancement of reprogramming by OSK,"Oct4-EGFP MEFs [3]; OSK without c-Myc, treated four days after transduction, day 21, compared with OSK+DMSO (FIG. 3A)",~2.5 fold
same,enhancement of reprogramming efficiency,"Oct4-EGFP MEFs [4]; in the presence of control siRNA (siNT), compared with DMSO treatment, day 12~14 (FIG. 2C)",more than 6 fold
same,increase in number of reprogrammed (GFP+) colonies,"Oct4-EGFP MEFs [4]; treated four days after transduction, compared with DMSO controls (FIG. 2B)",at least 2.8 fold
COc1ccc2c(c1)c(CC(=O)O)c(C)n2C(=O)c1ccc(Cl)cc1 [indomethacin],effect on iPSC generation (EGFP+ colony number),"Oct4-EGFP MEFs [3]; OSK, applied day 4~5 post transduction, scored two weeks post transduction (FIG. 6B)",no effect
same,effect on iPSC generation (EGFP+ colony number),"Oct4-EGFP MEFs [4]; applied day 4~5 post transduction, scored two weeks post transduction (FIG. 6A)",no effect
4-hydroxytamoxifen [4-hydroxytamoxifen (OHTM)],effect on AP+ colony formation,Oct4-EGFP MEFs [1],not showing adverse effect
same,effect on OKM-induced reprogramming,"Oct4-EGFP MEFs [2]; 1.25 uM, day 15~21, vs OKM+DMSO (FIG. 3C)",significantly improved
same,induction of endogenous Sox2 mRNA,Sox2; day 12,220%
same,induction of endogenous Sox2 mRNA,Sox2; day 16,400%
